This note sets out measurements from ChEMBL document CHEMBL1201862, “PubChem BioAssay data set” (2004).

Among the test systems are SK-MEL-28; UACC-62; SR; SNB-75; SN12C; MOLT-4; A549; COLO 205; SF-539; A498; HCT-15; HT-29; RXF 393; Malme-3M; CCRF-CEM; 786-0; SW-620; CAKI-1; UACC-257; Hs-578T.
What all share (assay): NCI-60 cell line screen, 48 h

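96-well plates; 48 h exposure; 5 concentrations. Endpoints by linear interpolation between flanking doses. Not reached: highest tested concentration assigned. At the GI50, growth is halved.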 Active and inactive are the calls of the source. Cut-off read from the data, not from the text of the source: active = GI50 up to about 1.1 µM and inactive = higher.

As to `Cc1ccnc2nc(-c3ccc(Cl)cc3)cc(O)c12`, the GI50 was 7.78 µM (inactive) in the assay with SK-MEL-28; 3.01 µM (inactive) in the assay with UACC-62; 1.41 µM (inactive) in the assay on SR; 2.17 µM (inactive) in the assay with SNB-75; 8.2 µM (inactive) in the assay on SN12C; 3.99 µM (inactive) with MOLT-4. For the same compound, the GI50 was 9.08 µM (inactive) in the assay on A549; 2.33 µM (inactive) in the assay with COLO 205; 5.74 µM (inactive) in the assay with SF-539; 3.65 µM (inactive) with A498; 2.32 µM in the assay on HCT-15; 3.23 µM (inactive) in the assay with HT-29. The GI50 in the assay on RXF 393 was 8.45 µM (inactive); in the assay on Malme-3M, 6.81 µM (inactive); in the assay on CCRF-CEM it was 4.63 µM (inactive); with 786-0, 4.46 µM (inactive); in the assay with SW-620, 3.35 µM (inactive); in the assay with CAKI-1, 6.68 µM (inactive). Further, the GI50 in the assay on UACC-257 is > 100 µM (inactive); in the assay with Hs-578T, 3.9 µM (inactive).
With `COC(=O)c1ccc(Oc2nc3ccc(C(F)(F)F)cc3nc2-c2ccccc2)cc1`, the GI50 with SK-MEL-28 was > 100 µM (inactive); with UACC-62 it was > 100 µM (inactive); in the assay with SR, 92.3 µM (inactive); in the assay with SNB-75, > 100 µM (inactive); in the assay on SN12C, > 100 µM (inactive); with MOLT-4 it was 66.4 µM (inactive). Besides, the GI50 in the assay with A549 was > 100 µM (inactive); with COLO 205, > 100 µM (inactive); with SF-539 it was > 100 µM (inactive); in the assay on A498, > 100 µM (inactive); with HCT-15, more than 100 µM; with HT-29, > 100 µM (inactive). For the same compound, the GI50 in the assay with RXF 393 was 74.5 µM (inactive); with Malme-3M, > 100 µM (inactive); in the assay on CCRF-CEM, > 100 µM (inactive); in the assay with 786-0, > 100 µM (inactive); with SW-620, > 100 µM (inactive); in the assay on CAKI-1, > 100 µM (inactive). Moreover, the GI50 with UACC-257 and in the assay with Hs-578T was > 100 µM (inactive) throughout.
Regarding `OC(CC(c1ccccc1)c1ccc(Cl)cc1)c1ccc(Cl)cc1` (stereo not given), the GI50 was 51.6 µM (inactive) in the assay on SK-MEL-28; 30.3 µM (inactive) in the assay with UACC-62; 27.3 µM (inactive) in the assay with SR; 29.4 µM (inactive) in the assay on SNB-75; 25.2 µM (inactive) in the assay with SN12C; 34.2 µM (inactive) in the assay on MOLT-4. Further, the GI50 in the assay with A549 was 37.8 µM (inactive); in the assay on COLO 205 it was 18.5 µM (inactive); in the assay on SF-539, 21.4 µM (inactive); in the assay with A498, 25.8 µM (inactive); in the assay on HCT-15, 33.4 µM; in the assay on HT-29, 35.6 µM (inactive). Further, the GI50 with RXF 393 was 24.8 µM (inactive); in the assay on Malme-3M, 25.5 µM (inactive); in the assay on CCRF-CEM, 36.8 µM (inactive); in the assay with 786-0, 34.1 µM (inactive); in the assay with SW-620, 40.7 µM (inactive); in the assay with CAKI-1 it was 27.8 µM (inactive). In addition, the GI50 was 29.4 µM (inactive) in the assay on UACC-257 and 48.1 µM (inactive) with Hs-578T.
For the compound `COc1ccc2nc(NC(=O)/C(C#N)=C/c3ccccc3)sc2c1`, the GI50 in the assay with SK-MEL-28 was 66.7 µM (inactive); in the assay on UACC-62 it was 23.1 µM (inactive); in the assay with SR, 4.43 µM (inactive); in the assay with SNB-75 it was > 45.7 µM (inactive); in the assay on SN12C, 40.6 µM (inactive); in the assay on MOLT-4 it was 27.5 µM (inactive). The GI50 in the assay on A549 was 59.4 µM (inactive); with COLO 205, 48.3 µM (inactive); in the assay with SF-539 it was 27.7 µM (inactive); in the assay on A498, 37.3 µM (inactive); in the assay with HCT-15, 24.7 µM; in the assay with HT-29, 46.7 µM (inactive). Also, the GI50 with RXF 393 was > 61.4 µM (inactive); in the assay with Malme-3M it was > 49 µM (inactive); in the assay with CCRF-CEM, 14.1 µM (inactive); in the assay with 786-0, 44.9 µM (inactive); in the assay with SW-620 it was 46.9 µM (inactive); in the assay on CAKI-1, 31 µM (inactive). The GI50 is 27 µM (inactive) in the assay on UACC-257 and > 48.5 µM (inactive) with Hs-578T.
Regarding `CCc1c(Cc2cccc3ccccc23)n2c(nc1=O)SCC2OCCO` (stereo not given), the GI50 in the assay with SK-MEL-28 is > 100 µM (inactive); in the assay on UACC-62 it was 56.5 µM (inactive); with SR it was 25.9 µM (inactive); in the assay on SNB-75, > 100 µM (inactive); with SN12C, > 100 µM (inactive); with MOLT-4 it was 26.6 µM (inactive). In addition, the GI50 in the assay on A549 was 77.3 µM (inactive); in the assay on COLO 205, > 100 µM (inactive); in the assay with SF-539 it was > 100 µM (inactive); with A498 it was > 100 µM (inactive); with HCT-15, 43.5 µM; in the assay on HT-29, 55.3 µM (inactive). Further, the GI50 with RXF 393 was > 100 µM (inactive); with Malme-3M, > 100 µM (inactive); in the assay with CCRF-CEM it was 19.6 µM (inactive); in the assay on 786-0, > 100 µM (inactive); with SW-620 it was 70.5 µM (inactive); in the assay with CAKI-1, > 100 µM (inactive). The GI50 in the assay with UACC-257 and in the assay with Hs-578T was > 100 µM (inactive) each time.
As for `C=C(c1ccccc1)C1ON(C)CCc2cc(OC)c(OC)cc21` (stereo not given), the GI50 with SK-MEL-28 was 45.1 µM (inactive); in the assay with UACC-62 it was > 100 µM (inactive); with SR, 88.7 µM (inactive); in the assay on SNB-75, > 100 µM (inactive); in the assay on SN12C it was > 100 µM (inactive); in the assay with MOLT-4 it was 89.3 µM (inactive). Moreover, the GI50 is > 100 µM (inactive) in the assay on A549; > 100 µM (inactive) in the assay with COLO 205; > 100 µM (inactive) with SF-539; > 100 µM (inactive) in the assay with A498; 68.1 µM with HCT-15; 75.3 µM (inactive) in the assay on HT-29. Moreover, the GI50 was > 100 µM (inactive) with RXF 393; 96.4 µM (inactive) in the assay with Malme-3M; > 100 µM (inactive) in the assay with CCRF-CEM; > 100 µM (inactive) with 786-0; > 100 µM (inactive) in the assay on SW-620; > 100 µM (inactive) with CAKI-1. The GI50 was 42.3 µM (inactive) with UACC-257 and 18.3 µM (inactive) with Hs-578T.
As to `O=C1C2=C(c3ccccc31)C(c1ccccc1)N1C(=O)CSC1=N2` (stereo not given), the GI50 in the assay with SK-MEL-28 was 63.5 µM (inactive); with UACC-62, 37.8 µM (inactive); in the assay on SR it was 26.4 µM (inactive); in the assay on SNB-75, 23.3 µM (inactive); with SN12C, > 53.6 µM (inactive); in the assay with MOLT-4, 38.8 µM (inactive). For the same compound, the GI50 with A549 was 67.1 µM (inactive); with COLO 205, > 56.4 µM (inactive); with SF-539, > 53.7 µM (inactive); in the assay on A498 it was > 100 µM (inactive); in the assay on HCT-15 it was 40.3 µM; in the assay on HT-29 it was 43.4 µM (inactive). Moreover, the GI50 in the assay on RXF 393 was 25.6 µM (inactive); with Malme-3M, 71.9 µM (inactive); in the assay on CCRF-CEM it was 48.4 µM (inactive); in the assay on 786-0, > 54.6 µM (inactive); in the assay with SW-620, 50.8 µM (inactive); with CAKI-1, 49.8 µM (inactive). Further, the GI50 was > 86.5 µM (inactive) in the assay on UACC-257 and 35.6 µM (inactive) in the assay on Hs-578T.
